Measurements published in PubChem BioAssay (NCI).
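All cell lines were grown in 96-well plates and treated with compound for 48 hours. Definition used: TGI = concentration required for complete inhibition of growth.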

Experiments:
Assay in all cases: NCI tumour cell line growth inhibition, 48 h
MDA-MB-231 breast = system: MDA-MB-231 breast
HOP-92 NSCLC = system: HOP-92 NSCLC
DU-145 prostate = system: DU-145 prostate
KM12 colon = system: KM12 colon
HT29 colon = system: HT29 colon
MDA-MB-435 = system: MDA-MB-435
BT-549 breast = system: BT-549 breast
MCF7 breast = system: MCF7 breast
HCC-2998 colon = system: HCC-2998 colon
SK-MEL-5 melanoma = system: SK-MEL-5 melanoma
RPMI-8226 leukemia = system: RPMI-8226 leukemia
NCI-H23 lung = system: NCI-H23 lung
SK-MEL-2 melanoma = system: SK-MEL-2 melanoma
HL-60(TB) leukemia = system: HL-60(TB) leukemia
COLO 205 colon = system: COLO 205 colon
UACC-62 melanoma = system: UACC-62 melanoma
SNB-75 CNS = system: SNB-75 CNS
M14 melanoma = system: M14 melanoma
HOP-62 NSCLC = system: HOP-62 NSCLC
MDA-N = system: MDA-N
NCI/ADR-RES ovarian = system: NCI/ADR-RES ovarian
HS 578T breast = system: HS 578T breast
UACC-257 melanoma = system: UACC-257 melanoma
OVCAR-5 ovarian = system: OVCAR-5 ovarian
SF-268 CNS = system: SF-268 CNS
HCT-15 colon = system: HCT-15 colon
SW-620 colon = system: SW-620 colon
NCI-H460 lung = system: NCI-H460 lung
SNB-19 CNS = system: SNB-19 CNS
MOLT-4 leukemia = system: MOLT-4 leukemia
OVCAR-4 ovarian = system: OVCAR-4 ovarian
LOX IMVI melanoma = system: LOX IMVI melanoma
RXF 393 renal = system: RXF 393 renal
UO-31 renal = system: UO-31 renal
CAKI-1 renal = system: CAKI-1 renal
MALME-3M melanoma = system: MALME-3M melanoma
NCI-H226 lung = system: NCI-H226 lung
SN12C renal = system: SN12C renal
TK-10 renal = system: TK-10 renal
OVCAR-8 ovarian = system: OVCAR-8 ovarian
IGROV1 ovarian = system: IGROV1 ovarian
SR leukemia = system: SR leukemia
T-47D breast = system: T-47D breast
CCRF-CEM leukemia = system: CCRF-CEM leukemia
SF-295 CNS = system: SF-295 CNS
HCT-116 colon = system: HCT-116 colon
786-0 renal = system: 786-0 renal
OVCAR-3 ovarian = system: OVCAR-3 ovarian
U251 CNS = system: U251 CNS
A549 NSCLC = system: A549 NSCLC
A498 renal = system: A498 renal
SF-539 CNS = system: SF-539 CNS
PC-3 prostate = system: PC-3 prostate
SK-MEL-28 melanoma = system: SK-MEL-28 melanoma
SK-OV-3 ovarian = system: SK-OV-3 ovarian
K-562 leukemia = system: K-562 leukemia
EKVX NSCLC = system: EKVX NSCLC
ACHN renal = system: ACHN renal
NCI-H522 lung = system: NCI-H522 lung
KM20L2 colon = system: KM20L2 colon
LXFL 529 NSCLC = system: LXFL 529 NSCLC
DMS 273 small cell lung = system: DMS 273 small cell lung
HOP-18 NSCLC = system: HOP-18 NSCLC
DLD-1 colon = system: DLD-1 colon
DMS 114 small cell lung = system: DMS 114 small cell lung
SNB-78 CNS = system: SNB-78 CNS

In the case of CCOC(=O)/C=C(\C(=O)OCC)n1ccc(=O)[nH]c1=O, the TGI (MDA-MB-231 breast) is reported as 32.6 µM, the TGI (HOP-92 NSCLC) is reported as 9.04 µM and the TGI (DU-145 prostate) is reported as greater than 76.9 µM. The TGI (KM12 colon) was 35.2 µM, the TGI (HT29 colon) was 31 µM and the TGI (MDA-MB-435) was 38 µM. It also gave a TGI (BT-549 breast) of 30.7 µM, a TGI (MCF7 breast) of 23.9 µM and a TGI (HCC-2998 colon) of 38.4 µM. For the same compound, the TGI (SK-MEL-5 melanoma) was greater than 56.7 µM, the TGI (RPMI-8226 leukemia) was 34.4 µM and the TGI (NCI-H23 lung) was 32.4 µM. For the same compound, the TGI (SK-MEL-2 melanoma) was 50 µM, the TGI (HL-60(TB) leukemia) was 6.2 µM and the TGI (COLO 205 colon) was 8.24 µM. For the same compound, the TGI (UACC-62 melanoma) was 31.3 µM, the TGI (SNB-75 CNS) was 35.3 µM and the TGI (M14 melanoma) was 31.4 µM. It also gave a TGI (HOP-62 NSCLC) of 53.6 µM, a TGI (MDA-N) of 51.3 µM and a TGI (NCI/ADR-RES ovarian) greater than 93 µM. For the same compound, the TGI (HS 578T breast) was 99.8 µM, the TGI (UACC-257 melanoma) was 12.3 µM and the TGI (OVCAR-5 ovarian) was 34.8 µM. For the same compound, the TGI (SF-268 CNS) was 42 µM, the TGI (HCT-15 colon) was 21.5 µM and the TGI (SW-620 colon) was 7.85 µM. It also gave a TGI (NCI-H460 lung) of 52.2 µM, a TGI (SNB-19 CNS) greater than 100 µM and a TGI (MOLT-4 leukemia) of 12.4 µM. The TGI (OVCAR-4 ovarian) was greater than 52.3 µM, the TGI (LOX IMVI melanoma) was 28.7 µM and the TGI (RXF 393 renal) was 24.6 µM. The TGI (UO-31 renal) was 31.1 µM, the TGI (CAKI-1 renal) was 3.52 µM and the TGI (MALME-3M melanoma) was 24.2 µM. It also gave a TGI (NCI-H226 lung) greater than 39.1 µM, a TGI (SN12C renal) of 26.4 µM and a TGI (TK-10 renal) of 26.2 µM. It also gave a TGI (OVCAR-8 ovarian) greater than 53.4 µM, a TGI (IGROV1 ovarian) of 30.1 µM and a TGI (SR leukemia) of 29.7 µM. For the same compound, the TGI (T-47D breast) was 33.1 µM, the TGI (CCRF-CEM leukemia) was 6.2 µM and the TGI (SF-295 CNS) was greater than 100 µM. For the same compound, the TGI (HCT-116 colon) was 19.6 µM, the TGI (786-0 renal) was 18.5 µM and the TGI (OVCAR-3 ovarian) was 26.1 µM. For the same compound, the TGI (U251 CNS) was 32.6 µM, the TGI (A549 NSCLC) was greater than 84.5 µM and the TGI (A498 renal) was 34.8 µM. It also gave a TGI (SF-539 CNS) of 75.1 µM, a TGI (PC-3 prostate) of 30.7 µM and a TGI (SK-MEL-28 melanoma) of 33.4 µM. The TGI (SK-OV-3 ovarian) was greater than 76.1 µM, the TGI (K-562 leukemia) was 19.1 µM and the TGI (EKVX NSCLC) was 34.9 µM. It also gave a TGI (ACHN renal) of 23.6 µM and a TGI (NCI-H522 lung) of 2.12 µM.

Compound CCN(CC)CCNC(=O)c1cccc2nc3ccccc3nc12 has a TGI (KM20L2 colon) of 67.8 µM, a TGI (HOP-92 NSCLC) greater than 73.4 µM and a TGI (KM12 colon) of 45.8 µM. For the same compound, the TGI (HT29 colon) was 28.3 µM, the TGI (HCC-2998 colon) was 52 µM and the TGI (SK-MEL-5 melanoma) was greater than 100 µM. The TGI (RPMI-8226 leukemia) was greater than 100 µM, the TGI (NCI-H23 lung) was 31.8 µM and the TGI (SK-MEL-2 melanoma) was 28.2 µM. The TGI (COLO 205 colon) was greater than 41.4 µM, the TGI (UACC-62 melanoma) was 45.9 µM and the TGI (SNB-75 CNS) was greater than 100 µM. It also gave a TGI (LXFL 529 NSCLC) greater than 87.9 µM, a TGI (M14 melanoma) greater than 48.7 µM and a TGI (HOP-62 NSCLC) of 33.8 µM. It also gave a TGI (UACC-257 melanoma) of 27.7 µM, a TGI (OVCAR-5 ovarian) of 41.6 µM and a TGI (SF-268 CNS) of 36.9 µM. The TGI (DMS 273 small cell lung) was greater than 100 µM, the TGI (HCT-15 colon) was 41.8 µM and the TGI (SW-620 colon) was greater than 47.1 µM. It also gave a TGI (SNB-19 CNS) greater than 100 µM, a TGI (MOLT-4 leukemia) of 37.3 µM and a TGI (OVCAR-4 ovarian) of 38.8 µM. The TGI (LOX IMVI melanoma) was 29.5 µM, the TGI (RXF 393 renal) was 28.2 µM and the TGI (UO-31 renal) was greater than 71.7 µM. The TGI (CAKI-1 renal) was greater than 100 µM, the TGI (MALME-3M melanoma) was 24.6 µM and the TGI (NCI-H226 lung) was 34.2 µM. It also gave a TGI (SN12C renal) greater than 100 µM, a TGI (TK-10 renal) greater than 100 µM and a TGI (OVCAR-8 ovarian) greater than 100 µM. The TGI (IGROV1 ovarian) was greater than 100 µM, the TGI (SF-295 CNS) was greater than 38.1 µM and the TGI (HOP-18 NSCLC) was greater than 63.4 µM. The TGI (HCT-116 colon) was 45.6 µM, the TGI (786-0 renal) was greater than 100 µM and the TGI (OVCAR-3 ovarian) was greater than 50 µM. It also gave a TGI (DLD-1 colon) greater than 100 µM, a TGI (U251 CNS) greater than 79.6 µM and a TGI (A549 NSCLC) greater than 89.1 µM. It also gave a TGI (A498 renal) of 30.9 µM, a TGI (SF-539 CNS) of 28.8 µM and a TGI (SK-MEL-28 melanoma) of 34.3 µM. The TGI (DMS 114 small cell lung) was 22.3 µM, the TGI (SK-OV-3 ovarian) was greater than 100 µM and the TGI (K-562 leukemia) was greater than 100 µM. It also gave a TGI (EKVX NSCLC) greater than 65.4 µM, a TGI (SNB-78 CNS) of 71.2 µM and a TGI (ACHN renal) greater than 100 µM. The TGI (NCI-H522 lung) was greater than 100 µM.

Compound OC1C[C@H](c2ccccc2)C2(C(O)c3ccccc3C2O)[C@@H](c2ccccc2)C1 (stereo not given in full) has a TGI (MDA-MB-231 breast) greater than 100 µM, a TGI (HOP-92 NSCLC) greater than 100 µM and a TGI (DU-145 prostate) greater than 100 µM. For the same compound, the TGI (KM12 colon) was greater than 100 µM, the TGI (HT29 colon) was greater than 100 µM and the TGI (MDA-MB-435) was greater than 100 µM. For the same compound, the TGI (BT-549 breast) was greater than 100 µM, the TGI (MCF7 breast) was greater than 100 µM and the TGI (HCC-2998 colon) was greater than 100 µM. For the same compound, the TGI (SK-MEL-5 melanoma) was greater than 100 µM, the TGI (RPMI-8226 leukemia) was greater than 100 µM and the TGI (NCI-H23 lung) was greater than 100 µM. The TGI (SK-MEL-2 melanoma) was greater than 100 µM, the TGI (HL-60(TB) leukemia) was greater than 100 µM and the TGI (COLO 205 colon) was greater than 100 µM. The TGI (UACC-62 melanoma) was greater than 100 µM, the TGI (SNB-75 CNS) was greater than 100 µM and the TGI (M14 melanoma) was greater than 100 µM. The TGI (HOP-62 NSCLC) was greater than 100 µM, the TGI (MDA-N) was greater than 100 µM and the TGI (NCI/ADR-RES ovarian) was greater than 100 µM. The TGI (HS 578T breast) was greater than 100 µM, the TGI (UACC-257 melanoma) was greater than 100 µM and the TGI (OVCAR-5 ovarian) was greater than 100 µM. The TGI (SF-268 CNS) was greater than 100 µM, the TGI (HCT-15 colon) was greater than 100 µM and the TGI (SW-620 colon) was greater than 100 µM. The TGI (NCI-H460 lung) was greater than 100 µM, the TGI (SNB-19 CNS) was greater than 100 µM and the TGI (MOLT-4 leukemia) was greater than 100 µM. For the same compound, the TGI (OVCAR-4 ovarian) was greater than 100 µM, the TGI (LOX IMVI melanoma) was greater than 100 µM and the TGI (RXF 393 renal) was greater than 100 µM. The TGI (UO-31 renal) was greater than 100 µM, the TGI (CAKI-1 renal) was greater than 100 µM and the TGI (MALME-3M melanoma) was greater than 100 µM. The TGI (NCI-H226 lung) was greater than 100 µM, the TGI (SN12C renal) was greater than 100 µM and the TGI (TK-10 renal) was greater than 100 µM. It also gave a TGI (OVCAR-8 ovarian) greater than 100 µM, a TGI (IGROV1 ovarian) greater than 100 µM and a TGI (SR leukemia) of 68.1 µM. It also gave a TGI (T-47D breast) greater than 100 µM, a TGI (CCRF-CEM leukemia) greater than 100 µM and a TGI (SF-295 CNS) greater than 100 µM. It also gave a TGI (HCT-116 colon) greater than 100 µM, a TGI (786-0 renal) greater than 100 µM and a TGI (OVCAR-3 ovarian) greater than 100 µM. It also gave a TGI (U251 CNS) greater than 100 µM, a TGI (A549 NSCLC) greater than 100 µM and a TGI (A498 renal) greater than 100 µM. The TGI (SF-539 CNS) was greater than 100 µM, the TGI (PC-3 prostate) was greater than 100 µM and the TGI (SK-MEL-28 melanoma) was greater than 100 µM. The TGI (SK-OV-3 ovarian) was greater than 100 µM, the TGI (K-562 leukemia) was greater than 100 µM and the TGI (EKVX NSCLC) was greater than 100 µM. For the same compound, the TGI (ACHN renal) was greater than 100 µM and the TGI (NCI-H522 lung) was greater than 100 µM.
